# Data: patent US9661853B2, “Molecules having pesticidal utility, and intermediates, compositions, and processes, related thereto” (Dow AgroSciences LLC, priority 2015, dated 2017)
# Tests used:
# [1] = test system: Beet Armyworm (Spodoptera exigua, LAPHEG); test: Bioassay on Beet Armyworm (BAW), 128-well diet tray assay; type: in vivo; conditions: 168 h, 50 μg/cm^2 on artificial diet, second instar larvae, 25° C., five to seven days, average of eight wells, read-out: BAW % Control (or Mortality) rating
# Protocol: (§1) Bioassays on Beet Armyworm (Spodoptera exigua, LAPHEG) (“BAW”) and Cabbage Looper (Trichoplusia ni, TRIPNI) (“CL”)
# (§2) Certain molecules disclosed in this document were tested against BAW and CL using procedures described in the following examples. In the reporting of the results, the “BAW & CL Rating Table” was used (See Table Section).
# Bioassays on BAW were conducted using a 128-well diet tray assay. One to five second instar BAW larvae were placed in each well (3 mL) of the diet tray that had been previously filled with 1 mL of artificial diet to which 50 μg/cm^2 of the test molecule (dissolved in 50 μL of 90:10 acetone-water mixture) had been applied (to each of eight wells) and then allowed to dry. Trays were covered with a clear self-adhesive cover, vented to allow gas exchange, and held at 25° C., 14:10 light-dark for five to seven days. Percent mortality was recorded for the larvae in each well; activity in the eight wells was then averaged. The results are indicated in the table entitled “Table ABC: Biological Results” (See Table Section).
# [2] = test system: Cabbage Looper (Trichoplusia ni, TRIPNI); test: Bioassay on Cabbage Looper (CL), 128-well diet tray assay; type: in vivo; conditions: 168 h, 50 μg/cm^2 on artificial diet, second instar larvae, 25° C., five to seven days, average of eight wells, read-out: CL % Control (or Mortality) rating
# Protocol: as §1, §2
# Bioassays on CL were conducted using a 128-well diet tray assay. One to five second instar CL larvae were placed in each well (3 mL) of the diet tray that had been previously filled with 1 mL of artificial diet to which 50 μg/cm^2 of the test molecule (dissolved in 50 μL of 90:10 acetone-water mixture) had been applied (to each of eight wells) and then allowed to dry. Trays were covered with a clear self-adhesive cover, vented to allow gas exchange, and held at 25° C., 14:10 light-dark for five to seven days. Percent mortality was recorded for the larvae in each well; activity in the eight wells was then averaged. The results are indicated in the table entitled “Table ABC: Biological Results” (See Table Section).
# [3] = test system: Yellow Fever Mosquito (Aedes aegypti, AEDSAE); type: in vivo; conditions: 4000 ppm DMSO master solution diluted, about 1 day-old larvae, room temperature, scored after 3 days
# Protocol: Bioassays on Yellow Fever Mosquito (Aedes aegypti, AEDSAE) (“YFM”)
# Certain molecules disclosed in this document were tested against YFM using procedures described in the following paragraph. In the reporting of the results, the “YFM Rating Table” was used (See Table Section).
# Master plates containing 400 μg of a molecule dissolved in 100 μL of dimethyl sulfoxide (DMSO) (equivalent to a 4000 ppm solution) are used. A master plate of assembled molecules contains 15 μL per well. To this plate, 135 μL of a 90:10 water/acetone mixture is added to each well. A robot (Biomek® NXP Laboratory Automation Workstation) is programmed to dispense 15 μL aspirations from the master plate into an empty 96-well shallow plate (“daughter” plate). There are 6 reps (“daughter” plates) created per master. The created “daughter” plates are then immediately infested with YFM larvae.
# The day before plates are to be treated, mosquito eggs are placed in Millipore water containing liver powder to begin hatching (4 g into 400 mL). After the “daughter” plates are created using the robot, they are infested with 220 μL of the liver powder/larval mosquito mixture (about 1 day-old larvae). After plates are infested with mosquito larvae, a non-evaporative lid is used to cover the plate to reduce drying. […] After 3 days, each well is observed and scored based on mortality. […]
melting point,SMILES,mortality at 50 µg/cm2 [1],mortality at 50 µg/cm2 [2],YFM % Control (or Mortality) rating [3]
,"CCCc1ccc(C)cc1N1C(=O)CS/C1=N\C(=O)Nc1ccc(CNc2ncn(-c3ccc(OC(F)(F)F)cc3)n2)cc1 [F3, (Z)-1-(3-(5-Methyl-2-propylphenyl)-4-oxothiazolidin-2-ylidene)-3-(4-(((1-(4-(trifluoromethoxy)phenyl)-1H-1,2,4-triazol-3-yl)amino)methyl)phenyl)urea]",50 to 100%,50 to 100%,A (80-100)
184 °C (dec.),CCCc1ccc(C)cc1N1C(=O)CS/C1=N\C(=O)Nc1ccc(CN(C)c2ncn(-c3ccc(OC(F)(F)F)cc3)n2)cn1,,,
205 to 207 °C,COCc1ccc(C)cc1N1C(=O)CS/C1=N\C(=O)Nc1ccc(CNc2ncn(-c3ccc(OC(F)(F)F)cc3)n2)cc1F,,,
,"CCCc1ccc(C)cc1N1C(=O)CS/C1=N\C(=O)Nc1ccc(CNc2ncn(-c3ccc(OC(F)(F)F)cc3)n2)cc1F [F5, (Z)-1-(2-Fluoro-4-(((1-(4-(trifluoromethoxy)phenyl)-1H-1,2,4-triazol-3-yl)amino)methyl)phenyl)-3-(3-(5-methyl-2-propylphenyl)-4-oxothiazolidin-2-ylidene)urea]",50 to 100%,50 to 100%,A (80-100)
